This is an account of results in US12116344B2, “Crystalline forms of a pharmaceutical compound” (Azafaros B.V., priority 2020, dated 2024).

Series [1] can be described thus: Dynamic vapour sorption (DVS), hygroscopicity. It is filed as physicochemical. The conditions noted are these: listed as Form 3. The method, then:
Dynamic vapour sorption (DVS) measurements were performed with an SPS11-100n “Sorptions Prüfsystem” from ProUmid (formerly “Projekt Messtechnik”), August-Nagel-Str. 23, 89079 Ulm (Germany). About 5 mg to 20 mg of sample was put into an aluminum sample pan. Humidity change rates of 5% per hour were used. The applied measurement program can be described as follows:
The sample was placed on an aluminium or platinum holder on top of a microbalance and allowed to equilibrate at a relative humidity (RH) of 50% before starting the pre-defined humidity programs: • (1) 2 h at 50% RH • (2) 50→0% RH (5%/h); 5 h at 0% RH • (3) 0→95% RH (5%/h); 5 h at 95% RH • (4) 95→0% RH (5%/h); 5 h at 0% RH • (5) 0→95% RH (5%/h); 5 h at 95% RH • (6) 95→50% RH (5%/h); 2 h at 50% RH

The target of series [2] is T1, non-lysosomal glucosylcerebrosidase (GbA2) (Homo sapiens, UniProt Q9HCG7).
T1 sequence (Q9HCG7 1-927): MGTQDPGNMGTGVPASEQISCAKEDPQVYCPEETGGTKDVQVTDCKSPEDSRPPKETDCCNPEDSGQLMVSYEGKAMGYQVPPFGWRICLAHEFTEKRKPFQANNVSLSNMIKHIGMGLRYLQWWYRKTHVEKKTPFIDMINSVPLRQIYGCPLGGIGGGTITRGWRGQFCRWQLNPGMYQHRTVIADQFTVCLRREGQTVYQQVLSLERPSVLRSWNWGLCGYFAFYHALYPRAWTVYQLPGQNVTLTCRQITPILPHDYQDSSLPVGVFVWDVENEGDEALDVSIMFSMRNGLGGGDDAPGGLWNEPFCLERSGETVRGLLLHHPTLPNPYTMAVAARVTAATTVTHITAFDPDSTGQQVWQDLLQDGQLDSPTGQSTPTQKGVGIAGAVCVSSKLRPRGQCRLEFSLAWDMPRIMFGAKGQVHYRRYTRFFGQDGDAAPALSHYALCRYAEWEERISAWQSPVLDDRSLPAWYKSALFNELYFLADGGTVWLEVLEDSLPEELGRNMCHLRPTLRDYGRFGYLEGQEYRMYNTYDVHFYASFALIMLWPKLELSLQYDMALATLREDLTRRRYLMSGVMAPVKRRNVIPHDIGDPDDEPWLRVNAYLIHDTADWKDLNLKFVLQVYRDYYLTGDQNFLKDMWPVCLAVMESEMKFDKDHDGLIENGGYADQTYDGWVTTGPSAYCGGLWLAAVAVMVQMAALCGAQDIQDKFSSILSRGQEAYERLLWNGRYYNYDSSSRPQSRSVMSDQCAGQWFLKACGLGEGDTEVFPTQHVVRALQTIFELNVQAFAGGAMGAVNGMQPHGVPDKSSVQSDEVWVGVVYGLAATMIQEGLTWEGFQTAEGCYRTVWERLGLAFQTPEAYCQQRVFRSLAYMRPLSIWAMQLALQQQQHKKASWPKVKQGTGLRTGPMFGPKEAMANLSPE
The conditions noted are these: stated in words only, no test described; cited from earlier work.

The nature of series [3]: Body weight of NPC mice, PND 11 to Week 9. It is filed as in vivo. The method, then:
Body weights and health status were recorded daily for the first week and later once a week.
24 NPC1 (−/−) mice (groups D to I) were treated per oral gavage (10 mL/kg) with AZ-3102-00 from post-natal day 11 (P11) to post-natal-day 70 (P70). Dosing will start at 1.5 mg/kg from P11 to P25, followed by 3 mg/kg from P26 to P70. Control mice included 6 NPC1 (−/−) and 4 NPC (+/−) mice treated with vehicle and 4 NPC (+/+) mice received AZ-3102-00 (groups A to C).
Graph represents the progress of body weights [g] per group measured daily during the first treatment week and weekly thereafter.

“Also recorded” adds a separate entry of the source.

With `OC[C@H]1[C@@H](O)[C@H](O)[C@@H](O)CN1CCCCCOCc1ccc(-c2ccccc2)c(F)c1` [AZ-3102], the “Hygroscopicity (description)” value in series [1] is recorded as “non-hygroscopic or substantially non-hygroscopic; also recorded: substantially non-hygroscopic”. Further, the “Potency as inhibitor of GbA2” value in series [2] is “highly potent (nM)”. In addition, the “Body weight gain of treated NPC (−/−) mice versus untreated NPC (−/−) mice” value in series [3] (both genders, daily oral gavage P11-P70, PND 11 to Week 9) is listed as “gained more than the NPC (−/−) untreated animals”. For the same compound, the “General health as indicated by average percent body weight gains” value in series [3] (daily oral gavage P11-P70, 1.5 mg/kg (P11-P25) then 3 mg/kg (P26-P70)) is recorded as “not impeded”.
